Data on 5 compounds can be found in patent publication US6503873B1, “Ultra mild detergent compositions” (Hampshire Chemical Corp, priority 1996, dated 2003).

The nature of data set [1]: Lather stability (lather drainage time, method of Hart and DeGeorge). The format is physicochemical. To be noted: for enhancement of lather stability of the product by addition as one-third of the product: 3:1 blend; for change in lather stability (lather drainage time) on addition of water hardness: approximately 3,000 ppm water hardness (CaCO3), FIG. 2. The method, then: The lather stability of a surfactant solution, expressed as lather drainage time, can be determined by the method of Hart and DeGeorge, J. Soc. Cosmet. Chem., 31, 223-226 (1980). In this method, a 200 ml portion of the test solution is agitated in a blender for one minute. The lather produced is immediately poured into a Nalgene PF150 funnel, which has been modified for easy detection of endpoint by incorporation of a fine strand of Nicrome wire across the funnel, where the diameter is 9 cm. The funnel is supported by a 20-mesh sieve. The time elapsed between pouring of the blender contents into the funnel and reappearance of the wire through the subsiding foam, determined using a stopwatch, is reported as the lather drainage time in seconds.

Another data set relates to human skin cels. Put plainly: In vitro skin irritation testing (MTT assay). The format is cell-based. Conditions: tissue immersed for 24 hours; about 16% solutions. The method, then: Samples of 1) the aforementioned commercial baby shampoo, 2) Na2LED3A, 3) a 3:1 ratio blend of baby shampoo and Na2LED3A, and 4) a 16% solution of sodium laureth 3 sulfate (a surfactant commonly used in ordinary shampoo) were subjected to in vitro skin irritation testing. A sample of the tissue is immersed for 24 hours in a solution of the substance to be evaluated and later assayed for viable mitochondria by an MTT assay. The MTT assay is a colorimetric method for determining cell viability based on the reduction of a tetrazolium salt (MTT) into a colored formazan dye by mitochondrial enzymes of the electron transport chain. The extent to which the number of viable mitochondria has been reduced, compared to a control, is taken as a measure of the toxicity of the test substance to human skin cels. The in vitro scoring classification used was as follows: […]
For orientation: Tetrazolium assays rely on reduction of a dye to a coloured formazan, in cell work by metabolically active cells.

Setting [2] is: product Johnsons Baby 2 in 1 shampoo, hard water (200 ppm CaCO3).
The mark [3] stands for this setting: product Johnsons Baby 2 in 1 shampoo, soft water.
The mark [4] stands for this setting: product Johnsons Baby Bath, hard water (200 ppm CaCO3).
[5] abbreviates: product Johnsons Baby Bath, soft water.
The mark [6] stands for this setting: product Johnsons Baby Shampoo, hard water (200 ppm CaCO3).
Where [7] appears, read: product Johnsons Baby Shampoo, soft water.
[8] abbreviates: product Suave Baby Care, hard water (200 ppm CaCO3).
The mark [9] stands for this setting: product Suave Baby Care, soft water.
The mark [10] stands for this setting: sodium chloride, 1% solution, pH 7, FIG. 1.

Turning to `CCCCCCCCCCCC(=O)N(CCN(CC(=O)[O-])CC(=O)[O-])CC(=O)O.[K+].[K+]` [K2LED3A, potassium lauroyl-ED3A], the “enhancement of lather stability of the product by addition as one-third of the product” value (shortened to “enhancement”) in data set [1] (setting [2]) is given as “approximately 7 fold”; in data set [1] (setting [3]), “more than 2 fold”; in data set [1] (setting [4]), “approximately 12 fold”; in data set [1] (setting [5]), “approximately 5 fold”; in data set [1] (product Johnsons Baby Shampoo, even harder water (400 ppm CaCO3)), “more than 24 fold”; in data set [1] (setting [6]), “more than 14 fold”. The “enhancement” value in data set [1] (setting [7]) is recorded as “approximately 8 fold”; in data set [1] (setting [8]) it was 5 fold; in data set [1] (setting [9]) it was “approximately 2 fold”.
Turning to `CCCCCCCCCCCCCC(=O)N(CCN(CC(=O)[O-])CC(=O)[O-])CC(=O)O.[Na+].[Na+]` [Na2MED3A, sodium myristoyl ED3A], the “enhancement” value is reported as 9 fold in data set [1] (setting [2]) and “more than 9 fold” in data set [1] (setting [3]). Also, the “lather effectiveness relative to the baby shampoo alone” value in data set [1] (pure substance, hard water, versus Johnsons Baby 2 in 1 shampoo, FIG. 11) is recorded as “more than 100 times”.
`CCCCCCCCCCCCOS(=O)(=O)[O-].[Na+]` [sodium lauryl sulfate, reference compound]: the “change in lather stability (lather drainage time) on addition of water hardness” value in data set [1] (1% solution) was “five-fold reduction”. Besides, the “lather drainage time depressed by, upon addition of 4% electrolyte” value in data set [1] (setting [10]) turned out to be 30 s.
Consider “sodium laureth 3 sulfate [Na Laureth(3) sulfate, reference compound]”, for which, in the data set on human skin cels, the “Classification (in vitro skin irritation)” value is reported as “Moderate (201-1,000)” and the “In vitro Score MTT-50” value was 522 micro g/ml.
With sodium lauroyl ED3A [Na2LED3A], the “change in lather stability (lather drainage time) on addition of water hardness” value in data set [1] (1% solution) was “five-fold increase”. The lather drainage time result in data set [1] (in the presence of 200 ppm hardness, FIG. 10) is on record as “over 200 seconds”. Further, the “enhancement” value is on record as 5 fold in data set [1] (setting [2]); “approximately 6 fold” in data set [1] (setting [3]); “more than 12 fold” in data set [1] (setting [4]); “more than 4 fold” in data set [1] (setting [5]); “approximately 7 fold” in data set [1] (setting [6]); “approximately 7 fold” in data set [1] (setting [7]). Besides, the “enhancement” value in data set [1] (setting [8]) was “more than 5 fold”; in data set [1] (setting [9]) it was “more than doubled”. For the same compound, the “lather drainage time increased by, upon addition of 4% electrolyte” value in data set [1] (setting [10]) is listed as “more than 70 seconds”. Further, the “Classification (in vitro skin irritation)” value with human skin cels is “Non-irritant (>10,000)”. For the same compound, the “In vitro Score MTT-50” value in the data set on human skin cels is reported as >10,000 micro g/ml.
